Laboratory results as given in patent US9796742B2, “Kinase inhibitors” (Respivert Limited, priority 2012, dated 2017).
Where two headings read alike, the source gives them in different places.

Tests used:
[1] = target: Syk (Homo sapiens (Human), UniProt P43405); assay: Syk enzyme inhibition (FRET, Z-LYTE); type: biochemical
Procedure: (§1) The enzyme inhibitory activities of compounds disclosed herein are determined by FRET using synthetic peptides labelled with both donor and acceptor fluorophores (Z-LYTE, Invitrogen Ltd., Paisley, UK).
(§2) The inhibitory activities of compounds of the invention against c-Src and Syk enzymes (Invitrogen), are evaluated in a similar fashion to that described hereinabove. The relevant enzyme (3000 ng/mL or 2000 ng/mL respectively, 2.5 μL) is incubated with the test compound (either 4 μg/mL, 0.4 μg/mL, 0.04 μg/mL, or 0.004 μg/mL, 2.5 μL each) for 2 hr at RT. The FRET peptides (8 μM. 2.5 μL), and appropriate ATP solutions (2.5 μL, 800 μM for c-Src, and 60 μM ATP for Syk) are then added to the enzymes/compound mixtures and incubated for 1 hr. Development reagent (protease, 5 μL) is added for 1 hr prior to detection in a fluorescence microplate reader (Varioskan® Flash, ThermoFisher Scientific).
(§3) In all cases, the site-specific protease cleaves non-phosphorylated peptide only and eliminates the FRET signal. Phosphorylation levels of each reaction are calculated using the ratio of coumarin emission (donor) over fluorescein emission (acceptor), for which high ratios indicate high phosphorylation and low ratios indicate low phosphorylation levels. The percentage inhibition of each reaction is calculated relative to non-inhibited control and the 50% inhibitory concentration (IC50 value) is then calculated from the concentration-response curve.

[2] = tested on: HT29 cells; assay: IL-1β-induced IL-8 release in HT29 cells; type: cell-based; conditions: Homo sapiens, HT-29, IL-1β-stimulated HT29 cells, read-out: IC50 Values for Inhibition of Cytokine Release, HT29 cells IL-8
Procedure: HT29 cells, a human colon adenocarcinorna cell line, are plated in a 96 well plate (24 hrs) and pre-treated with compounds at the desired concentration for 2 hours before addition of 5 ng/mL of IL-1β (Abcam) for 24 hours. Supernatants are harvested for IL-8 quantification by Sandwich ELISA (Duo-set, R&D System). The IC50 is determined from the dose response curve.

[3] = target: p38 MAPKα (Homo sapiens (Human), UniProt Q16539); assay: p38 MAPKα enzyme inhibition (FRET, Z-LYTE; Method 2); type: biochemical
Procedure: as §1
The inhibitory activities of test compounds against the p38 MAPKα isoform (MAPK14: Invitrogen), are evaluated indirectly by determining the level of activation/phosphorylation of the down-stream molecule, MAPKAP-K2. The p38 MAPKα protein (80 ng/mL, 2.5 μL) is mixed with the test compound (2.5 μL of either 4 μg/mL, 0.4 μg/mL, 0.04 μg/mL or 0.004 μg/mL) for 2 hr at RT. […] The mixture is incubated for 1 hr at RT. Development reagent (protease, 5 μL) is added for 1 hr prior to detection in a fluorescence microplate reader (Varioskan® Flash, ThermoFisher Scientific).
Method 2 This method follows the same steps as Method 1 above, but utilises a higher concentration of the p38 MAPKα protein (2.5 μL of 200 ng/mL protein instead of 2.5 μL of 80 ng/mL protein) for mixing with the test compound.
as §3

[4] = target: GSK3α (Homo sapiens (Human), UniProt P49840); assay: GSK 3α enzyme inhibition (FRET, Z-LYTE; Method 2); type: biochemical
Method in brief: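 GSK3-α protein preincubated with compound for 105 min, then Z-LYTE FRET peptide and ATP added for 1 h before protease development for 1 h. Phosphorylation taken from coumarin/fluorescein emission ratio; percent inhibition against uninhibited control and IC50 calculated from concentration-response curves.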

[5] = tested on: d-U937 cells; assay: LPS-induced TNFα/IL-8 release in d-U937 cells; type: cell-based; conditions: Homo sapiens, dU937, LPS-stimulated d-U937 cells
Procedure: U937 cells, a human monocytic cell line, are differentiated to macrophage-type cells by incubation with phorbol myristate acetate (PMA; 100 ng/mL) for 48 to 72 hr. Cells are pre-incubated with final concentrations of test compound for 2 hr and are then stimulated with 0.1 μg/mL of LPS (from E. Coli: O111:B4, Sigma) for 4 hr. The supernatant is collected for determination of TNFα and IL-8 concentrations by sandwich ELISA (Duo-set, R&D systems). The inhibition of TNFα production is calculated as a percentage of that achieved by 10 μg/mL of BIRB796 at each concentration of test compound by comparison against vehicle control. The relative 50% effective concentration (REC50) is determined from the resultant concentration-response curve. The inhibition of IL-8 production is calculated at each concentration of test compound by comparison with vehicle control. The 50% inhibitory concentration (IC50) is determined from the resultant concentration-response curve.

[6] = tested on: PBMCs; assay: LPS-induced TNFα/IL-8 release in PBMC cells; type: cell-based; conditions: Homo sapiens, LPS-stimulated PBMCs
Method in brief: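 Human PBMCs from healthy donors, isolated by density gradient, were pretreated with compound for 2 h and then stimulated with 1 ng/mL LPS (E. coli 0111:B4) for 24 h at 37° C, 5% CO2. Supernatant IL-8 and TNFα were measured by sandwich ELISA, and IC50 was taken from the dose-response curve.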

[7] = target: c-Src (Homo sapiens (Human), UniProt P12931); assay: c-Src enzyme inhibition (FRET, Z-LYTE); type: biochemical
Procedure: as §1, §2, §3

[8] = tested on: PBMCs; assay: IL-2 and IFN gamma release in CD3/CD28 stimulated PBMC cells; type: cell-based; conditions: Homo sapiens
Procedure: PBMCs from healthy subjects are separated from whole blood using a density gradient (Lymphoprep, Axis-Shield Healthcare). Cells are added to a 96 well plate pre-coated with a mixture of CD3/[…] monoclonal antibodies (0.3 μg/mL eBioscience and 3 μg/mL BD Pharmingen respectively). Compound at the desired concentration is then added to the wells and the plate left for 3 days under normal tissue culture conditions. Supernatants are harvested and IL-2 and IFN gamma release determined by Sandwich ELISA (Duo-set, R&D System). The IC50 is determined from the dose response curve.

[9] = TNFα (REC50 relative to BIRB796 per method), read-out: IC50 Values for Inhibition of Cytokine Release, dU937 cells TNFα
[10] = IL-8, read-out: IC50 Values for Inhibition of Cytokine Release, PBMCs IL-8
[11] = IL-2, read-out: IC50 Values for Inhibition of Cytokine Release, PBMCs IL-2
[12] = IL-8, read-out: IC50 Values for Inhibition of Cytokine Release, dU937 cells IL-8
[13] = TNFα, read-out: IC50 Values for Inhibition of Cytokine Release, PBMCs TNFα
[14] = IFNγ, read-out: IC50 Values for Inhibition of Cytokine Release, PBMCs IFNγ

Sequence of p38 MAPKα (Q16539 whole entry): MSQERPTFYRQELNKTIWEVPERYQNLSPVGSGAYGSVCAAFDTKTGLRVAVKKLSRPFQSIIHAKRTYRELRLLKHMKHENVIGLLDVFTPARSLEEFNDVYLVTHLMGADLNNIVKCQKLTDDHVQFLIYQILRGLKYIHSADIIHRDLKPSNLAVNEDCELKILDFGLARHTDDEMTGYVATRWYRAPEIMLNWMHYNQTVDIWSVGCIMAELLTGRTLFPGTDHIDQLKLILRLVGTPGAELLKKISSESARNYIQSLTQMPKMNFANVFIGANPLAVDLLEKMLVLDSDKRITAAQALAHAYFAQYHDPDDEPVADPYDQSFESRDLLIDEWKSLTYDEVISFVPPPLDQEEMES
Sequence of GSK3α (P49840 whole entry): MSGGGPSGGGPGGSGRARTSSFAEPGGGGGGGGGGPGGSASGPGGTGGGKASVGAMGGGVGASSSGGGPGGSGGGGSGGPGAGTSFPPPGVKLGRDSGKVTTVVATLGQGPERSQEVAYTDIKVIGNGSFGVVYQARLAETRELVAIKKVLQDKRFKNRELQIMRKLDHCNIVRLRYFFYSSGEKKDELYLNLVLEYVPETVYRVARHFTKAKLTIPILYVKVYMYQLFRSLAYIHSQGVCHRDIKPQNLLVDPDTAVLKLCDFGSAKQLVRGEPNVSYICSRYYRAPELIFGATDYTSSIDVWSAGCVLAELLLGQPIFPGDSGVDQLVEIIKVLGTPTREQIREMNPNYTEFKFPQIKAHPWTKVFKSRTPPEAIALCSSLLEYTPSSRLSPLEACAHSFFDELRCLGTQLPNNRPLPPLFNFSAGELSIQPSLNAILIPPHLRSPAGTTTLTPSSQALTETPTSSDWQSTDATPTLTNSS
Sequence of c-Src (P12931 whole entry, looked up): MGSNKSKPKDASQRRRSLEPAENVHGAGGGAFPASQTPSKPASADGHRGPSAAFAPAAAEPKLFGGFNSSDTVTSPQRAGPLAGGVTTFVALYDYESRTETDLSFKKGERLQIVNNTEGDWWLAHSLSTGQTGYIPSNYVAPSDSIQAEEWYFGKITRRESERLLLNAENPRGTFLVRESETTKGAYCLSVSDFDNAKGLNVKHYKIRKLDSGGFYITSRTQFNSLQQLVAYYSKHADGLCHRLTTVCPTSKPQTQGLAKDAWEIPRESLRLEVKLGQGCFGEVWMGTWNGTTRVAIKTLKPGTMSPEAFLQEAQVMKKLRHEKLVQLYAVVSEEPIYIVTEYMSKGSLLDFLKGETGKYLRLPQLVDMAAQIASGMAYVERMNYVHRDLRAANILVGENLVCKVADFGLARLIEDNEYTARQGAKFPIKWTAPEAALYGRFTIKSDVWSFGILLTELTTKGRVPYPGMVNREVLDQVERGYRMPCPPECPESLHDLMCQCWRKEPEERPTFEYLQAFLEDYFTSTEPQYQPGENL

IC50 [1] [nM]	IC50 [2] [nM]	IC50 [3] [nM]	IC50 [4] [nM]	IC50 [5, 9] [nM]	IC50 [7] [nM]	IC50 [5, 12] [nM]	SMILES	IC50 [6, 10] [nM]	IC50 [8, 11] [nM]	IC50 [6, 13] [nM]	IC50 [8, 14] [nM]
1	4.6	13	2230	0.5	3		COc1cc(Nc2nccc(Oc3ccc(NC(=O)Nc4cc(C(C)C)nn4-c4cccc(CP(C)(C)=O)c4)c4ccccc34)n2)cc(OCCN2CCOCC2)c1 [Example 39, 1-(1-(3-((Dimethylphosphoryl)methyl)phenyl)-3-isopropyl-1H-pyrazol-5-yl)-3-(4-((2-((3-methoxy-5-(2-morpholinoethoxy)phenyl)amino)pyrimidin-4-yl)oxy)naphthalen-1-yl)urea]	1.2			
96	4.7	357	4300		56		CC(C)(C)c1cc(NC(=O)Nc2ccc(Oc3ccnc(Nc4ccccc4)c3)c3ccccc23)n(-c2cccc(CP(C)(C)=O)c2)n1 [Example 41, 1-(3-(tert-Butyl)-1-(3-((dimethylphosphoryl)methyl)phenyl)-1H-pyrazol-5-yl)-3-(4-((2-(phenylamino)pyridin-4-yl)oxy)naphthalen-1-yl)urea]	2.8	56.4		
			647	3.6		9.4	CC(C)(C)c1cc(NC(=O)Nc2ccc(Oc3ccnc(Nc4ccccc4)n3)c3ccccc23)n(-c2cccc(P(C)(C)=O)c2)n1 [Example 2, 1-(3-(tert-Butyl)-1-(3-(dimethylphosphoryl)phenyl)-1H-pyrazol-5-yl)-3-(4-((2-(phenylamino)pyrimidin-4-yl)oxy)naphthalen-1-yl)urea]			4.3	
			220	19.2	12		CC(C)c1cc(NC(=O)Nc2ccc(Oc3ccnc(Nc4ccccc4)n3)c3ccccc23)n(-c2ccc(P(C)(C)=O)cc2)n1 [Example 4, 1-(1-(4-(Dimethylphosphoryl)phenyl)-3-isopropyl-1H-pyrazol-5-yl)-3-(4-((2-(phenylamino)-pyrimidin-4-yl)oxy)naphthalen-1-yl)urea]	58.9		20.8	
63	5.6		6980		47		CC(C)c1cc(NC(=O)Nc2ccc(Oc3ccnc(Nc4ccccc4)c3)c3ccccc23)n(-c2cccc(CP(C)(C)=O)c2)n1 [Example 42, 1-(1-(3-((Dimethylphosphoryl)methyl)phenyl)-3-isopropyl-1H-pyrazol-5-yl)-3-(4-((2-(phenylamino)pyridin-4-yl)oxy)naphthalen-1-yl)urea]	5.5			
34		8	1280	2	15	4.9	CC(C)(C)c1cc(NC(=O)Nc2ccc(Oc3ccnc(Nc4ccccc4)n3)c3ccccc23)n(-c2ccc(P(C)(C)=O)cc2)n1 [Example 1, 1-(3-(tert-Butyl)-1-(4-(dimethylphosphoryl)phenyl)-1H-pyrazol-5-yl)-3-(4-((2-(phenylamino)pyrimidin-4-yl)oxy)naphthalen-1-yl)urea]	6.9		1.3	
	7.1	201	8040				CC(C)(C)c1cc(NC(=O)Nc2ccc(Oc3ccnc(Nc4ccccc4)c3)c3ccccc23)n(-c2cccc(CP3(=O)CCCC3)c2)n1 [Example 44, 1-(3-(tert-Butyl)-1-(3-((1-oxidophospholan-1-yl)methyl)phenyl)-1H-pyrazol-5-yl)-3-(4-((2-(phenylamino)pyridin-4-yl)oxy)naphthalen-1-yl)urea]	4			
24	2.6	303	4190		14		CC(C)(C)c1cc(NC(=O)Nc2ccc(Oc3ccnc(Nc4cc(OCCN5CCOCC5)cc(C(F)(F)F)c4)n3)c3ccccc23)n(-c2cccc(CP(C)(C)=O)c2)n1 [Example 61, 1-(3-(tert-Butyl)-1-(3-((dimethylphosphoryl)methyl)phenyl)-1H-pyrazol-5-yl)-3-(4-((2-((3-(2-morpholinoethoxy)-5-(trifluoromethyl)phenyl)amino)pyrimidin-4-yl)oxy)naphthalen-1-yl)urea]	2.3	50.7		3.3
219	3.8	202	> 10000		95		CC(C)c1cc(NC(=O)Nc2ccc(Oc3ccnc(Nc4cc(OCCN5CCOCC5)cc(C(F)(F)F)c4)n3)c3ccccc23)n(-c2cccc(CP(C)(C)=O)c2)n1 [Example 49, 1-(1-(3-((Dimethylphosphoryl)methyl)phenyl)-3-isopropyl-1H-pyrazol-5-yl)-3-(4-((2-((3-(2-morpholinoethoxy)-5-(trifluoromethyl)phenyl)amino)pyrimidin-4-yl)oxy)naphthalen-1-yl)urea]	1.4	45.6		5.1
232	4.3	231	> 10000		87		CC(C)c1cc(NC(=O)Nc2ccc(Oc3ccnc(Nc4cc(OCCN5CCOCC5)cc(OC(F)(F)F)c4)n3)c3ccccc23)n(-c2cccc(CP(C)(C)=O)c2)n1 [Example 48, 1-(1-(3-((Dimethylphosphoryl)methyl)phenyl)-3-isopropyl-1H-pyrazol-5-yl)-3-(4-((2-((3-(2-morpholinoethoxy)-5-(trifluoromethoxy)phenyl)amino)pyrimidin-4-yl)oxy)naphthalen-1-yl)urea]	1.5	53.4		
